Test results from patent publication US20100316575A1, “MODULATING BODY WEIGHT” (priority 2008, published 2010).

Biological target: T1, KATP channels (Mus musculus, UniProt P70170+Q61743)
T1 construct: Pacing perfused hearts isolated from WT and Kir6.2-KO mice; from tissue; host or cells: isolated, retrogradely perfused and paced hearts of wild-type mice
Assay: Rate-dependent action potential duration (APD90) in paced, perfused isolated hearts
Design: species or system mice
Settings: isolated perfused paced WT mouse hearts, KATP-channel blockade with glyburide, FIG. 5B
Description: FIG. 5. […] The KATP channel-dependent component in rate-dependent action potential shortening was verified in WT hearts following KATP-channel blockade with the sulfonylurea blocker glyburide (FIG. 5B). […] Maximal oxygen consumption (V O2max), corresponding to the highest tolerated workload, reflects the maximal rate of energy production and the ability of the cardiovascular system to supply oxygen. Kir6.2-KO and WT mice achieved the same level of V O2max reflecting their equivalent oxidative phosphorylation potential. […] This was associated with high lactate levels in the blood (FIG. 5E), indicating compromise of the cardiovascular system. Activity-related energy expenditure largely reflects the performance of cardiac and skeletal muscle, tissues with abundant KATP channel expression. Accordingly, cardiac muscle was used as a model of striated musculature. As cardiac function and associated energy consumption depends on electrical determinants, the contribution of KATP channels in heart rate-dependent modulation of action potential duration and rate of oxygen consumption were tested. Telemetry recording of cardiac activity defined that both WT and Kir6.2-KO mice display a heart rate profile with a 400 to 800 beats per minute range (FIG. 5A). […]

T1 sequence (Q61743 whole entry, the tested form may be a part): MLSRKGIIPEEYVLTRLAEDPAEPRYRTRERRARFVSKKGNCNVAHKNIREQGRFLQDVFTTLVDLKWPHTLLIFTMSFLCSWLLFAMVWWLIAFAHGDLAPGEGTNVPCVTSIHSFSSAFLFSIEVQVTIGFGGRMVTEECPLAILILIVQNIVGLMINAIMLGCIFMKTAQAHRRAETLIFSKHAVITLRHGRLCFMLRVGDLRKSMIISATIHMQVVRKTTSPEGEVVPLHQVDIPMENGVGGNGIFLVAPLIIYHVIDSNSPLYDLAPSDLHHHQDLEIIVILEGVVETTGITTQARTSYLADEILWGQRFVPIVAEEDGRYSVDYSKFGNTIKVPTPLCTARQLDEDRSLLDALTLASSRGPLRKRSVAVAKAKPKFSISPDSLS
T1 sequence (P70170 whole entry, the tested form may be a part): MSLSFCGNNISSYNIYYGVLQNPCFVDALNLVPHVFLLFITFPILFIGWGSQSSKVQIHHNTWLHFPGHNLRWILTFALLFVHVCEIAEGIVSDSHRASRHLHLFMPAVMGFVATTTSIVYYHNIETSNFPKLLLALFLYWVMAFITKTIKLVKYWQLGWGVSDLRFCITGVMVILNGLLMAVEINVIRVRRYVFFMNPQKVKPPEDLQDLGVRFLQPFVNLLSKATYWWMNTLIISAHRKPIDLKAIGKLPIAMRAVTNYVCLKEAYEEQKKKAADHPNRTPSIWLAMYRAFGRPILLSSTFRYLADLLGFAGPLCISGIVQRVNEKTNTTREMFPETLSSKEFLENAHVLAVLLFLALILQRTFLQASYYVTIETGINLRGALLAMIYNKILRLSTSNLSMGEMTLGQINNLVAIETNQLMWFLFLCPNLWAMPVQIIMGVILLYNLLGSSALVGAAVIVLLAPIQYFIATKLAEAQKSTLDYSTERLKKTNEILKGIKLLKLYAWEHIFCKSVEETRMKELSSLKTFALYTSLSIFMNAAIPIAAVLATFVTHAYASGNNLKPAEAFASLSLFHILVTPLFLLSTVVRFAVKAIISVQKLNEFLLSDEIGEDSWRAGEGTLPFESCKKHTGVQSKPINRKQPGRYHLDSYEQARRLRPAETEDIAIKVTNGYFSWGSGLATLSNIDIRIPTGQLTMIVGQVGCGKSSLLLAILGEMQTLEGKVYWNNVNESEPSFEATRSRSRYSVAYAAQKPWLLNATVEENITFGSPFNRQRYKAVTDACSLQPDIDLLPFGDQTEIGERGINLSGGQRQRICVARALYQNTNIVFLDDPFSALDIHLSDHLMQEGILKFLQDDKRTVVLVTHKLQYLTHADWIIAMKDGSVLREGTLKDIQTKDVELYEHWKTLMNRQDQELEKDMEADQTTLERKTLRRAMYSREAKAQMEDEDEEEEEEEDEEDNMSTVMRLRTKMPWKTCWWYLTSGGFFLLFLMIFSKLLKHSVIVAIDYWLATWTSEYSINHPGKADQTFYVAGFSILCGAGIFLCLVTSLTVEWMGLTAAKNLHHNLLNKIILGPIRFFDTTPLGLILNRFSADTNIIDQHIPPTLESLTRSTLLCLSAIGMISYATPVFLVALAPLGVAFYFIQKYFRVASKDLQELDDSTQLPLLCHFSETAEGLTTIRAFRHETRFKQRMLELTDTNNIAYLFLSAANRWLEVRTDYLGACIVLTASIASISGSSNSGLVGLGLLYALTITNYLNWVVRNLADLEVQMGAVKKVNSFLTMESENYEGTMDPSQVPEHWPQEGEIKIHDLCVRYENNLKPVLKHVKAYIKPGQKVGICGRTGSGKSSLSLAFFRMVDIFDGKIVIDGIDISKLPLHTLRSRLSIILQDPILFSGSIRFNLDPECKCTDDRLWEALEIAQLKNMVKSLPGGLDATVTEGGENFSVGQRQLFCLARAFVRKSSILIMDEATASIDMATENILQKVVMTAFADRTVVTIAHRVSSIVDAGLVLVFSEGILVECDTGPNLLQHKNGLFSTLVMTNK

- KATP channel-dependent component in rate-dependent action potential shortening (monophasic APD90): verified
SMILES: COc1ccc(Cl)cc1C(=O)NCCc1ccc(S(=O)(=O)NC(=O)NC2CCCCC2)cc1 [glyburide]
